Assay results taken from PubChem BioAssay AID330 (DTP/NCI, 2004).
Where “and” joins values, the source holds several entries; their conditions need not be identical. Equal entries are not always repeated. Inconclusive results and toxic doses are left out. How the source made its calls: active means survival T/C of 150% or more; inactive means T/C below 125% in these data.

System: P388 leukemia ip, CD2F1 mice, survival T/C
Experiment: NCI In Vivo Anticancer Drug Screen. Data for tumor model P388 Leukemia (intraperitoneal) in CD2F1 (CDF1) mice
Settings: endpoint: median survival time, higher = longer survival
Summary of the method: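 Mice carrying the transplanted tumor received test compound or vehicle. Survival was recorded in each group, and the value is the treated-group measurement divided by that of the vehicle-treated control group.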

[1] = dose: 50.0 mg/kg/injection, schedule: Q01DX009 (ip), vehicle: saline with Tween-80
[2] = dose: 100.0 mg/kg/injection, schedule: Q01DX009 (ip), vehicle: saline with Tween-80
[3] = dose: 50.0 mg/kg/injection, schedule: Q01DX009 (ip), vehicle: saline
[4] = dose: 100.0 mg/kg/injection, schedule: Q01DX009 (ip), vehicle: saline
[5] = dose: 200.0 mg/kg/injection, schedule: Q01DX009 (ip), vehicle: saline
[6] = dose: 50.0 mg/kg/injection, schedule: Q01DX005 (ip), vehicle: Klucel (hydroxypropylcellulose) (HPC)
[7] = dose: 100.0 mg/kg/injection, schedule: Q01DX005 (ip), vehicle: Klucel (hydroxypropylcellulose) (HPC)
[8] = dose: 200.0 mg/kg/injection, schedule: Q01DX005 (ip), vehicle: Klucel (hydroxypropylcellulose) (HPC)
[9] = dose: 200.0 mg/kg/injection, schedule: Q01DX009 (ip), vehicle: saline with Tween-80
[10] = dose: 120.0 mg/kg/injection, schedule: Q01DX005 (ip), vehicle: saline with Tween-80
[11] = dose: 240.0 mg/kg/injection, schedule: Q01DX005 (ip), vehicle: saline with Tween-80

Measured: T/C

COc1ccc(CC2C(=O)NC(C)C(=O)N(C)C3Cc4ccc(cc4)Oc4cc(ccc4OC)CC(C(=O)NC(C)C(=O)NC(C)C(=O)N2C)N(C)C3=O)cc1 (configuration not stated)
active: dose: 0.5 mg/kg/injection, schedule: Q01DX009 (ip), vehicle: none 161 % of control | dose: 1.0 mg/kg/injection, schedule: Q01DX009 (ip), vehicle: none 152 % of control | dose: 2.0 mg/kg/injection, schedule: Q01DX009 (ip), vehicle: none 190 % of control

Cc1ccccc1/C=N\N1C(=O)C(C)SC1c1ccccc1C (configuration not stated)
inactive: [1] 91 % of control | [2] 93 % of control

Cc1cccc(C2=NCCN2)c1C
inactive: dose: 5.0 mg/kg/injection, schedule: Q04DX003 (ip), vehicle: saline with Tween-80 100 % of control | dose: 10.0 mg/kg/injection, schedule: Q04DX003 (ip), vehicle: saline with Tween-80 100 % of control | dose: 20.0 mg/kg/injection, schedule: Q04DX003 (ip), vehicle: saline with Tween-80 100 % of control

O=C1OC(C(O)CO)C(O)=C1OC[N+]1(CCCl)CCN(CCCl)CC1 (configuration not stated)
inactive: [3] 100 % of control and 110 % of control | [4] 108 % of control and 116 % of control | [5] 123 % of control
active: dose: 400.0 mg/kg/injection, schedule: Q01DX009 (ip), vehicle: saline 157 % of control

COC(=O)C1=CCC[C@H]2C1(C)CCC(C)C21CC(c2ccoc2)OC1=O (some centres not stated)
inactive: dose: 3.5 mg/kg/injection, schedule: Q01DX005 (ip), vehicle: Klucel (hydroxypropylcellulose) (HPC) 106 % of control | dose: 7.0 mg/kg/injection, schedule: Q01DX005 (ip), vehicle: Klucel (hydroxypropylcellulose) (HPC) 91 % of control | dose: 14.0 mg/kg/injection, schedule: Q01DX005 (ip), vehicle: Klucel (hydroxypropylcellulose) (HPC) 95 % of control | dose: 28.0 mg/kg/injection, schedule: Q01DX005 (ip), vehicle: Klucel (hydroxypropylcellulose) (HPC) 91 % of control | [6] 92 % of control

O=C(O)c1cc(-c2ccncc2)nc2ccccc12
inactive: [6] 99 % of control | [7] 96 % of control | [8] 97 % of control

NC1=C(N2CC2)C(=O)C(N)=C(N2CC2)C1=O
active: dose: 0.05 mg/kg/injection, schedule: Q01DX009 (ip), vehicle: saline 177 % of control | dose: 0.1 mg/kg/injection, schedule: Q01DX009 (ip), vehicle: saline 187 % of control and 223 % of control | dose: 0.2 mg/kg/injection, schedule: Q01DX009 (ip), vehicle: saline 256 % of control | dose: 0.3 mg/kg/injection, schedule: Q01DX009 (ip), vehicle: saline 225 % of control

Nc1ccc(-c2nc3ccccc3c(=O)[nH]2)cc1
inactive: dose: 12.5 mg/kg/injection, schedule: Q01DX009 (ip), vehicle: Klucel (hydroxypropylcellulose) (HPC) 86 % of control | dose: 25.0 mg/kg/injection, schedule: Q01DX009 (ip), vehicle: Klucel (hydroxypropylcellulose) (HPC) 100 % of control and 108 % of control and 92 % of control | dose: 100.0 mg/kg/injection, schedule: Q01DX009 (ip), vehicle: Klucel (hydroxypropylcellulose) (HPC) 122 % of control and 90 % of control and 94 % of control | dose: 200.0 mg/kg/injection, schedule: Q01DX009 (ip), vehicle: Klucel (hydroxypropylcellulose) (HPC) 111 % of control

NC(=O)C1=C(N)CCC1
inactive: [2] 90 % of control | [9] 90 % of control | dose: 400.0 mg/kg/injection, schedule: Q01DX009 (ip), vehicle: saline with Tween-80 100 % of control

CCC1=NOC(n2c3ccccc3c3ccccc32)C1 (configuration not stated)
inactive: [6] 100 % of control | [7] 100 % of control | [8] 95 % of control

N#CC(C#N)=NNc1c(Br)cc(Cl)cc1Br
inactive: dose: 1.56 mg/kg/injection, schedule: Q01DX009 (ip), vehicle: Klucel (hydroxypropylcellulose) (HPC) 104 % of control | dose: 3.12 mg/kg/injection, schedule: Q01DX009 (ip), vehicle: Klucel (hydroxypropylcellulose) (HPC) 105 % of control | dose: 6.25 mg/kg/injection, schedule: Q01DX009 (ip), vehicle: Klucel (hydroxypropylcellulose) (HPC) 116 % of control and 97 % of control

O=C(Nc1ccc(C2=NCCCN2)cc1)Nc1cccc(C(=O)Nc2ccc(C3=NCCCN3)cc2)c1
inactive: dose: 1.5 mg/kg/injection, schedule: Q01DX009 (ip), vehicle: saline with Tween-80 100 % of control | dose: 3.0 mg/kg/injection, schedule: Q01DX009 (ip), vehicle: saline with Tween-80 109 % of control | dose: 12.5 mg/kg/injection, schedule: Q04DX003 (ip), vehicle: saline with Tween-80 104 % of control | dose: 25.0 mg/kg/injection, schedule: Q04DX003 (ip), vehicle: saline with Tween-80 118 % of control | [1] 90 % of control | dose: 50.0 mg/kg/injection, schedule: Q04DX003 (ip), vehicle: saline with Tween-80 118 % of control
active: dose: 16.5 mg/kg/injection, schedule: Q01DX009 (ip), vehicle: saline with Tween-80 163 % of control

NS(=O)(=O)c1cccnc1Nc1cccc(Cl)c1Cl
inactive: [3] 100 % of control | [4] 100 % of control | [5] 96 % of control

O=C1C=CC(=O)O1 (tested in a mixture with another compound)
inactive: dose: 6.25 mg/kg/injection, schedule: Q01DX009 (ip), vehicle: saline 117 % of control | dose: 12.5 mg/kg/injection, schedule: Q01DX009 (ip), vehicle: saline 100 % of control | dose: 25.0 mg/kg/injection, schedule: Q01DX009 (ip), vehicle: saline 102 % of control and 108 % of control and 89 % of control | dose: 25.0 mg/kg/injection, schedule: Q04DX003 (ip), vehicle: saline 120 % of control | [3] 108 % of control [middle of 4 runs] | [4] 100 % of control and 108 % of control and 109 % of control | dose: 150.0 mg/kg/injection, schedule: Q01DX009 (ip), vehicle: saline 120 % of control | [5] 108 % of control and 115 % of control and 120 % of control

O=C(O)C(=O)O.[Co].[NH-]CC[NH-].[NH-]CC[NH-]
inactive: dose: 12.5 mg/kg/injection, schedule: Q04DX002 (ip), vehicle: saline with Tween-80 100 % of control | dose: 25.0 mg/kg/injection, schedule: Q04DX002 (ip), vehicle: saline with Tween-80 100 % of control

c1ccc(Cc2cc(-c3ccccc3)[nH]c2-c2ccccc2)cc1
inactive: [3] 100 % of control | [4] 104 % of control | [5] 90 % of control

CN(C)CCNC(=O)c1noc2c1CSc1ccccc1-2
inactive: dose: 100.0 mg/kg/injection, schedule: Q01DX001 (ip), vehicle: saline with Tween-80 101 % of control | dose: 200.0 mg/kg/injection, schedule: Q01DX001 (ip), vehicle: saline with Tween-80 101 % of control | dose: 400.0 mg/kg/injection, schedule: Q01DX001 (ip), vehicle: saline with Tween-80 100 % of control

O=C(NN1C(=O)CSC1c1ccc(Cl)cc1Cl)c1ccncc1 (configuration not stated)
inactive: dose: 25.0 mg/kg/injection, schedule: Q01DX005 (ip), vehicle: saline with Tween-80 101 % of control | dose: 50.0 mg/kg/injection, schedule: Q01DX005 (ip), vehicle: saline with Tween-80 98 % of control | dose: 100.0 mg/kg/injection, schedule: Q01DX005 (ip), vehicle: saline with Tween-80 93 % of control | [10] 100 % of control | [11] 90 % of control

NCC(=O)c1ccc2ccccc2c1
inactive: dose: 60.0 mg/kg/injection, schedule: Q01DX005 (ip), vehicle: Klucel (hydroxypropylcellulose) (HPC) 105 % of control | dose: 120.0 mg/kg/injection, schedule: Q01DX005 (ip), vehicle: Klucel (hydroxypropylcellulose) (HPC) 106 % of control

O=C1C2C(C(=O)N1c1ccc(OCc3ccccc3)cc1)C1c3ccccc3C2C2CCCCN21 (configuration not stated)
inactive: dose: 3.13 mg/kg/injection, schedule: Q01DX009 (ip), vehicle: water 100 % of control | dose: 6.25 mg/kg/injection, schedule: Q01DX009 (ip), vehicle: water 105 % of control | dose: 12.5 mg/kg/injection, schedule: Q01DX009 (ip), vehicle: water 109 % of control | dose: 25.0 mg/kg/injection, schedule: Q01DX009 (ip), vehicle: water 111 % of control

CC1OC(Oc2ccc3c(=O)c(-c4ccc(O)cc4)coc3c2)C(O)C(O)C1O (configuration not stated)
inactive: dose: 60.0 mg/kg/injection, schedule: Q01DX005 (ip), vehicle: saline with Tween-80 103 % of control | [10] 103 % of control | [11] 103 % of control

O=C1C(Cl)=C(NC(=O)C2CCCCC2)C(=O)C(Cl)=C1NC(=O)C1CCCCC1
inactive: dose: 25.0 mg/kg/injection, schedule: Q01DX005 (ip), vehicle: Klucel (hydroxypropylcellulose) (HPC) 90 % of control | [6] 90 % of control | [7] 88 % of control | [8] 89 % of control

CCCCN1C(=O)/C(=C/c2ccco2)SC1=S
inactive: [1] 101 % of control | [2] 104 % of control | [9] 102 % of control

CC(=O)N1CCCC2=C1CCCCC2
inactive: dose: 100.0 mg/kg/injection, schedule: Q04DX003 (ip), vehicle: saline 92 % of control | dose: 200.0 mg/kg/injection, schedule: Q04DX003 (ip), vehicle: saline 100 % of control | dose: 400.0 mg/kg/injection, schedule: Q04DX003 (ip), vehicle: saline 101 % of control
